Laboratory results taken from patent US9695155B2, “Herbicidal substituted pyrimidinyloxy benzene compounds” (E. I. DU PONT DE NEMOURS AND COMPANY, priority 2013, dated 2017).

Experiments:
[1] = test system: velvetleaf; assay: Test A preemergence; format: in vivo, Abutilon theophrasti
In short: (§1)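 Compounds in non-phytotoxic solvent with surfactant applied as soil spray preemergence, or postemergence to plants 2-10 cm at one- to two-leaf stage, in loam/sand. After approximately 10 days in greenhouse, injury rated visually versus untreated controls, 0 (no effect) to 100 (complete control).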

[2] = test system: Heteranthera limosa; assay: Test B flooded paddy test; format: in vivo; settings: Heteranthera limosa, Flood, 250 g ai/ha; 0 to 100 scale where 0 is no effect and 100 is complete control; read-out: Plant response rating, Ducksalad
In short: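 Flooded to 3 cm at the 2-leaf stage, pots received compound through the paddy water and were kept at that depth under greenhouse conditions. After 13–15 days, effect was rated by eye relative to controls, 0 = none and 100 = complete control.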

[3] = test system: large (Lg) crabgrass; assay: Test A preemergence; format: in vivo, Digitaria sanguinalis
In short: as §1

[4] = test system: barnyardgrass; assay: Test A postemergence; format: in vivo, Echinochloa crus-galli; settings: Echinochloa crus-galli, post-emergence, 240 h, read-out: Plant response rating, Barnyardgrass
In short: as §1

[5] = test system: giant foxtail; assay: Test C postemergence; format: in vivo, Setaria faberii; settings: Setaria faberi, post-emergence
In short: (§2)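 Whole-plant greenhouse test with surfactant-containing solvent formulation, applied preemergence to sown loam–sand pots or postemergence to 2–18 cm plants. Scored by eye 13 to 15 days on, 0–100 scale.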

[6] = test system: morningglory; assay: Test C postemergence; format: in vivo, Ipomoea coccinea
In short: as §2

[7] = test system: giant foxtail; assay: Test A postemergence; format: in vivo, Setaria faberii; settings: Setaria faberi, post-emergence, 240 h, read-out: Plant response rating, Foxtail, Giant
In short: as §1

[8] = test system: velvetleaf; assay: Test C postemergence; format: in vivo, Abutilon theophrasti
In short: as §2

[9] = test system: pigweed; assay: Test C postemergence; format: in vivo, Amaranthus retroflexus
In short: as §2

[10] = test system: corn; assay: Test A postemergence; format: in vivo, Zea mays; settings: Zea mays, post-emergence, 240 h
In short: as §1

[11] = test system: waterhemp; assay: Test C postemergence; format: in vivo, Amaranthus rudis
In short: as §2

[12] = test system: corn; assay: Test A preemergence; format: in vivo, Zea mays
In short: as §1

[13] = test system: corn; assay: Test C postemergence; format: in vivo, Zea mays; settings: Zea mays, post-emergence
In short: as §2

[14] = test system: oilseed rape; assay: Test C postemergence; format: in vivo, Brassica napus
In short: as §2

[15] = test system: morningglory; assay: Test A postemergence; format: in vivo, Ipomoea spp.; settings: Ipomoea, post-emergence, 240 h, read-out: Plant response rating, Morningglory
In short: as §1

[16] = test system: johnsongrass; assay: Test C postemergence; format: in vivo, Sorghum halepense
In short: as §2

[17] = 125 g ai/ha, 0 to 100 scale, 0 no effect, 100 complete control
[18] = 500 g ai/ha, 0 to 100 scale where 0 is no effect and 100 is complete control
[19] = 31 g ai/ha, postemergence, visual rating, scale 0 to 100 (0 no effect, 100 complete control), 13 to 15 days

N#Cc1cccc(Oc2ncc(Cl)cn2)c1-n1cc(OCC(F)(F)F)cn1 [Compound 274, 3-[(5-chloro-2-pyrimidinyl)oxy]-2-[4-(2,2,2-trifluoroethoxy)-1H-pyrazol-1-yl]benzonitrile]
Velvetleaf plant response rating (0 to 100 scale) ([1]; 125 g ai/ha): 100 | pest or weed control at 500 g/ha ([1]; Abutilon theophrasti, pre-emergence, 240 h, 500 g ai/ha, 0 to 100 scale where 0 is no effect and 100 is complete control, read-out: Velvetleaf plant response rating): 100% | pest or weed control at 250 g/ha [2]: 95% | Crabgrass, Large plant response rating (0 to 100 scale) ([3]; 125 g ai/ha): 100 | pest or weed control at 500 g/ha ([3]; Digitaria sanguinalis, pre-emergence, 240 h, 500 g ai/ha, 0 to 100 scale where 0 is no effect and 100 is complete control, read-out: Crabgrass, Large plant response rating): 100% | pest or weed control at 125 g/ha [4, 17]: 90% | pest or weed control at 500 g/ha [4, 18]: 100% | pest or weed control at 16 g/ha ([5]; 16 g ai/ha, postemergence, 0 is no effect, 100 is complete control, read-out: Plant response rating (0 to 100), Foxtail, Giant): 5% | pest or weed control at 31 g/ha ([5]; 31 g ai/ha, postemergence, visual rating, scale 0 to 100 (0 no effect, 100 complete control), 13 to 15 days, read-out: Foxtail, Giant plant response rating): 10% | pest or weed control at 125 g/ha ([5]; 125 g ai/ha, postemergence, visual rating, scale 0 to 100 (0 no effect, 100 complete control), read-out: Plant response rating, Foxtail, Giant): 60% | pest or weed control at 62 g/ha ([5]; Postemergence, 62 g ai/ha, scale 0 to 100 (0 no effect, 100 complete control), 13 to 15 days, read-out: Plant response rating, Foxtail, Giant): 10% | Morningglory plant response rating [6, 19]: 85 | pest or weed control at 16 g/ha ([6]; Ipomoea, post-emergence, 16 g ai/ha, postemergence, 0 is no effect, 100 is complete control, read-out: Plant response rating (0 to 100), Morningglory): 85% | pest or weed control at 125 g/ha ([6]; Ipomoea, post-emergence, 125 g ai/ha, postemergence, visual rating, scale 0 to 100 (0 no effect, 100 complete control), read-out: Plant response rating, Morningglory): 95% | pest or weed control at 62 g/ha ([6]; Ipomoea, post-emergence, Postemergence, 62 g ai/ha, scale 0 to 100 (0 no effect, 100 complete control), 13 to 15 days, read-out: Plant response rating, Morningglory): 95% | pest or weed control at 125 g/ha [7, 17]: 90% | pest or weed control at 500 g/ha [7, 18]: 90% | Velvetleaf plant response rating [8, 19]: 50 | pest or weed control at 16 g/ha ([8]; Abutilon theophrasti, post-emergence, 16 g ai/ha, postemergence, 0 is no effect, 100 is complete control, read-out: Plant response rating (0 to 100), Velvetleaf): 30% | pest or weed control at 125 g/ha ([8]; Abutilon theophrasti, post-emergence, 125 g ai/ha, postemergence, visual rating, scale 0 to 100 (0 no effect, 100 complete control), read-out: Plant response rating, Velvetleaf): 75% | pest or weed control at 62 g/ha ([8]; Abutilon theophrasti, post-emergence, Postemergence, 62 g ai/ha, scale 0 to 100 (0 no effect, 100 complete control), 13 to 15 days, read-out: Plant response rating, Velvetleaf): 65% | Pigweed plant response rating [9, 19]: 85 | pest or weed control at 16 g/ha ([9]; Amaranthus retroflexus, post-emergence, 16 g ai/ha, postemergence, 0 is no effect, 100 is complete control, read-out: Plant response rating (0 to 100), Pigweed): 95% | pest or weed control at 125 g/ha ([9]; Amaranthus retroflexus, post-emergence, 125 g ai/ha, postemergence, visual rating, scale 0 to 100 (0 no effect, 100 complete control), read-out: Plant response rating, Pigweed): 98% | pest or weed control at 62 g/ha ([9]; Amaranthus retroflexus, post-emergence, Postemergence, 62 g ai/ha, scale 0 to 100 (0 no effect, 100 complete control), 13 to 15 days, read-out: Plant response rating, Pigweed): 90% | Corn plant response rating (crop injury, 0 = no effect, 100 = complete kill) at 125 g/ha [10, 17]: 80% | Corn plant response rating (crop injury, 0 = no effect, 100 = complete kill) at 500 g/ha [10, 18]: 90% | Waterhemp plant response rating [11, 19]: 85 | pest or weed control at 16 g/ha ([11]; Amaranthus tuberculatus, post-emergence, 16 g ai/ha, postemergence, 0 is no effect, 100 is complete control, read-out: Plant response rating (0 to 100), Waterhemp): 70% | pest or weed control at 125 g/ha ([11]; Amaranthus tuberculatus, post-emergence, 125 g ai/ha, postemergence, visual rating, scale 0 to 100 (0 no effect, 100 complete control), read-out: Plant response rating, Waterhemp): 98% | pest or weed control at 62 g/ha ([11]; Amaranthus tuberculatus, post-emergence, Postemergence, 62 g ai/ha, scale 0 to 100 (0 no effect, 100 complete control), 13 to 15 days, read-out: Plant response rating, Waterhemp): 95% | Corn plant response rating (0 to 100 scale) ([12]; 125 g ai/ha): 50 | plant injury at 500 g/ha ([12]; Zea mays, pre-emergence, 240 h, 500 g ai/ha, 0 to 100 scale where 0 is no effect and 100 is complete control, read-out: Corn plant response rating): 50% | plant injury at 16 g/ha ([13]; 16 g ai/ha, postemergence, 0 is no effect, 100 is complete control, read-out: Plant response rating (0 to 100), Corn): 5% | plant injury at 31 g/ha ([13]; 31 g ai/ha, postemergence, visual rating, scale 0 to 100 (0 no effect, 100 complete control), 13 to 15 days, read-out: Corn plant response rating): 10% | Corn plant response rating (crop injury, 0 = no effect, 100 = complete kill) at 125 g/ha ([13]; 125 g ai/ha, postemergence, visual rating, scale 0 to 100 (0 no effect, 100 complete control)): 15% | Corn plant response rating (crop injury, 0 = no effect, 100 = complete kill) at 62 g/ha ([13]; Postemergence, 62 g ai/ha, scale 0 to 100 (0 no effect, 100 complete control), 13 to 15 days): 10% | Oilseed Rape plant response rating [14, 19]: 80 | plant injury at 16 g/ha ([14]; Brassica napus, post-emergence, 16 g ai/ha, postemergence, 0 is no effect, 100 is complete control, read-out: Plant response rating (0 to 100), Oilseed Rape): 60% | plant injury at 125 g/ha ([14]; Brassica napus, post-emergence, 125 g ai/ha, postemergence, visual rating, scale 0 to 100 (0 no effect, 100 complete control), read-out: Plant response rating, Oilseed Rape): 90% | plant injury at 62 g/ha ([14]; Brassica napus, post-emergence, Postemergence, 62 g ai/ha, scale 0 to 100 (0 no effect, 100 complete control), 13 to 15 days, read-out: Plant response rating, Oilseed Rape): 85% | pest or weed control at 125 g/ha [15, 17]: 90% | pest or weed control at 500 g/ha [15, 18]: 100% | Johnsongrass plant response rating [16, 19]: 5 | pest or weed control at 16 g/ha ([16]; Sorghum halepense, post-emergence, 16 g ai/ha, postemergence, 0 is no effect, 100 is complete control, read-out: Plant response rating (0 to 100), Johnsongrass): 5% | pest or weed control at 125 g/ha ([16]; Sorghum halepense, post-emergence, 125 g ai/ha, postemergence, visual rating, scale 0 to 100 (0 no effect, 100 complete control), read-out: Plant response rating, Johnsongrass): 10% | pest or weed control at 62 g/ha ([16]; Sorghum halepense, post-emergence, Postemergence, 62 g ai/ha, scale 0 to 100 (0 no effect, 100 complete control), 13 to 15 days, read-out: Plant response rating, Johnsongrass): 5%
